Assay results as given in patent publication US20260294874A1, “COMPOSITIONS COMPRISING MODULATORS OF RIBONUCLEOPROTEIN GRANULE FORMATION AND DISSOLUTION AND METHODS OF USE THEREOF” (University of Virginia Patent Foundation, priority 2023, published 2026).
Entries after “also recorded” stand apart in the source; their conditions may differ.

Assays:
Type in all cases: cell-based
[1] = tested on: stress granules (G3BP1 foci) in HeLa cells; assay: Immunofluorescence phenotypic screen for stress granules (α-G3BP1) in stressed HeLa cells; settings: 2 h
Description: SuTEx compound treatments. Prior to treatments, cells were washed twice with warm phosphate-buffered saline (PBS) and exchanged with serum-free DMEM (supplemented with 1% L-glutamine) for at least 30 minutes at 37° C. with 5% CO2. Compounds were then added as 1000×DMSO stocks (10 μL for 10 cm dishes and 3 μL for 6-well dishes), plates were mixed gently, and cells were incubated for two hours. All compounds were thoroughly vortexed and sonicated for five minutes prior to addition to ensure complete solvation. For microscopy experiments, cultures were seeded at 150,000 cells in 3 mL of DMEM in 6-well THERMO SCIENTIFIC™ BIOLITE™ brand microwell plates (Catalog No. 12556004; Thermo Fisher Scientific Inc., Waltham, Massachusetts. United States of America). For collection, media was aspirated, and cells were washed once with cold PBS before scraping from plates. Cells were centrifuged at 500×g at 4° C. for 5 minutes and supernatant was removed. Cell pellets were resuspended in cold PBS (1 mL) and centrifuged at 1,400×g at 4° C. for 3 minutes. Supernatant was again removed, and pellets were then snap-frozen in liquid nitrogen and stored at −80° C. until needed.
Immunofluorescence. Immunofluorescence (IF) of HEK293T cells was performed as previously described in Ciancone et al., 2022. HeLa cells were seeded at 9.0×10^4 in a 24-well plate with 12-mm glass coverslips. The next day, the cells were treated with 25 μM SuTEx probe for 2 hours in DMEM medium without FBS. The cells were then treated with 75 μM NaAsO2 for 30 minutes and fixed with 3% paraformaldehyde in PBS for 15 minutes at room temperature (RT) and washed with PBS twice. The fixed cells were permeabilized with PBST (0.1% Triton X-100) for 15 minutes at room temperature and blocked with 5% goat serum in PBST for 30 minutes at RT. The cells were incubated with anti-G3BP1 antibody H-10 (Catalog No. sc-365338 at 1:200 dilution; Santa Cruz Biotechnology, Inc., Dallas, Texas, United States of America) for 2 hours at RT and washed with PBST (0.1% Tween-20) for 5 minutes three times. Next, cells were incubated with goat anti-mouse Alexa 594 antibody (Catalog No. 115-585-003 at 1:800 dilution; Jackson ImmunoResearch, West Grove, Pennsylvania, United States of America) for 30 minutes at RT. The cells were washed twice with PBST, stained with Hoechst 33342 (Catalog No. H3570 at […]; Thermo Fischer Scientific) in PBST for 5 minutes, and washed with PBS twice for 5 minutes. The coverslips were mounted in PROLONG™ Gold AntiFade Mountant (Catalog No. P36930, Thermo Fisher Scientific) and imaged using NIS Elements AR software and a Nikon Eclipse Ti microscope equipped with a ×100 objective and CMOS camera. […] A CellProfiler pipeline was developed to quantify the number of stress granules under each condition. Briefly, cells were recognized as blue^+ (nuclei) red^+ (G3BP1) objects, and the red^+ granules that meet the shape and size threshold were identified and counted. Cells on the border of linages were excluded from the analysis for more accurate quantification.
We used immunofluorescence (IF) detection for phenotypic screening of SuTEx compound activity on stress-induced PB and SG levels in cells (FIG. 1B). PBs were induced through glucose deprivation of HEK293T cells and detected by immunofluorescence with anti-enhancer of mRNA-decapping protein 4 (EDC4) as previously described (Kedersha & Anderson, 2007; Ciancone et al., 2022) (~4 vs 2 PBs/cell in −glucose and +glucose conditions, respectively; FIG. 8). EDC4 is an established PB marker for mammalian cells and is important for PB formation (Kedersha & Anderson, 2007; Luo et al., 2018). SGs were induced in HeLa cells by [COMPOUND LEFT OUT] treatments and detected by fluorescent staining with anti-Ras GTPase-activating protein-binding protein 1 (G3BP1) antibody (75 μM [COMPOUND LEFT OUT], 30 min; FIG. 9). G3BP1 foci have been used in previous IF studies to identify SGs in cells (Kedersha & Anderson, 2007). […]

HNRPK Y72 = target: T1, HNRPK Y72 (Homo sapiens, UniProt P61978); assay: Competitive ABPP SILAC LC-MS/MS chemical proteomics, HNRPK Y72; settings: DMSO (light)/ligand (heavy)
T1 construct: liganded site Y72
Description: (§1) Preparation of SILAC proteomes for LC-MS/MS analysis. SILAC cell proteomes were fractionated to collect the supernatant and normalized to 2.3 mg/mL in PBS. ‘Heavy’ and ‘light’ proteomes were aliquoted (427 μL) and probe-modified proteins were conjugated to desthiobiotin-PEG-3-azide using copper-catalyze azide-alkyne cycloaddition, trypsinized into peptides using Trypsin/Lys-C Mix (Catalog No. V5071; Promega Corporation, Madison, Wisconsin, United States of America), enriched using PIERCE™ Avidin Agarose brand beads (Catalog No. 20219; Thermo Fisher Scientific Inc., Waltham, Massachusetts. United States of America), and prepared for nano-electrospray ionization-LC-MS/MS analysis as previously described in Hahm et al., 2020.
(§2) Data Analysis—Chemical Proteomics. Identification and analysis of peptides and proteins using LC-MS was accomplished using bioinformatics software and quality control parameter protocols as previously described in Hahm et al., 2020.
(§3) We performed quantitative liquid-chromatography tandem mass spectrometry (LC-MS/MS) chemical proteomic studies to identify the target protein and binding site(s) of SuTEx fragments with RNP granule modulating activity. […]
(§4) We detected ~8,700 probe-modified sites (Tyr and Lys) in our aggregate HeLa and HEK293T chemical proteomic analyses. […]

HSPB1 K123 = target: T2, HSPB1 K123 (Homo sapiens, UniProt P04792); assay: Competitive ABPP SILAC LC-MS/MS chemical proteomics, HSPB1 K123; settings: 25 μM, 2 h; HHS-465 100 μM; DMSO (light)/ligand (heavy)
T2 construct: endogenous in cells; host or cells: SILAC cells (HeLa and HEK293T are named; HeLa inferred for HSPB1/EKT179, as SG modulators were profiled in HeLa)
T2 sequence (P04792 whole entry): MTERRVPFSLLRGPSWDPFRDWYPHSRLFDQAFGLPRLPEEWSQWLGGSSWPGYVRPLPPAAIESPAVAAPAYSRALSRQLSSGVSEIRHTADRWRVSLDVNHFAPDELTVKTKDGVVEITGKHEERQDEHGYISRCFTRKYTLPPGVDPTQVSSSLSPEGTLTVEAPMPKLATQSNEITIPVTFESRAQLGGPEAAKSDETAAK
Description: as §1, §2, §3, §4

EDC3 Y475 = target: T3, EDC3 Y475 (Homo sapiens, UniProt Q96F86); assay: Competitive ABPP SILAC LC-MS/MS chemical proteomics, EDC3 Y475; settings: glucose-deprived HEK293T cells, 25 μM, 2 h
T3 sequence (Q96F86 1-508): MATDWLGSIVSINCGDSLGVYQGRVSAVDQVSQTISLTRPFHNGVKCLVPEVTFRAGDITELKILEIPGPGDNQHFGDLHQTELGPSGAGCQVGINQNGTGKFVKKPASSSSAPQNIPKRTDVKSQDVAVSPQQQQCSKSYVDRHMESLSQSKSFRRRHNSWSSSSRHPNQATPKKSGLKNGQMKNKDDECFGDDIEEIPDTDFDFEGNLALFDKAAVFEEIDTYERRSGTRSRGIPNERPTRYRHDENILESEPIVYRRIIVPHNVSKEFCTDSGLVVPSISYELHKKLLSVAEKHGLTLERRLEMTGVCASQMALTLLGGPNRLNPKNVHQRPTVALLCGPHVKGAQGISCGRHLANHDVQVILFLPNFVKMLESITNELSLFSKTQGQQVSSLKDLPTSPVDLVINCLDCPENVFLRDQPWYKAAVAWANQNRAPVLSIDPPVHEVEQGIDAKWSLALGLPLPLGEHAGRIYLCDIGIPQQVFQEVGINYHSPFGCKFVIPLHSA
Description: as §1, §2
We performed quantitative liquid-chromatography tandem mass spectrometry (LC-MS/MS) chemical proteomic studies to identify the target protein and binding site(s) of SuTEx fragments with RNP granule modulating activity. […] SILAC light and heavy cells (HEK293T and HeLa) were treated with experimental conditions used for phenotypic screening including the SuTEx ligand pretreatment (25 μM, 2 h) followed by PB (glucose-deprivation, 15 min) and SG induction (75 μM [COMPOUND LEFT OUT], 30 min). Afterwards, cells were lysed, soluble proteomes treated with HHS-465 SuTEx probe (100 μM, 1 h), a global Tyr/Lys-reactive probe used previously for RNP granule investigations (Ciancone et al., 2022), and samples processed to probe-modified peptides for LC-MS/MS analysis as previously reported (Huang et al., 2021), shown in FIG. 10.
as §4

recombinant EDC3 = target: T4, recombinant EDC3 (Homo sapiens, UniProt Q96F86); assay: Competitive gel-based ABPP, HHS-465 probe labeling of recombinant EDC3 in HEK293T cells; settings: 25 μM, 2 h (FIG. 4F); 0.1-100 μM for concentration dependence (FIG. 4D); HHS-465 100 μM, 1 h, RT
T4 construct: FLAG; expressed in transfected cells; host or cells: HEK293T
T4 sequence (Q96F86 1-508): T3 sequence (Q96F86 1-508)
Text: FIGS. 4A-4F. Discovery of a SuTEx ligand for the hyper-reactive EDC3 Y475 site. (FIG. 4A) Overlap of liganded sites from SuTEx PB modulators with reported RNA granule induction-sensitive lysine and tyrosine sites (RISKYs; Ciancone et al., 2022). The five overlapping sites were further compared to previously reported hyper-RISKY sites (Ciancone et al., 2022) resulting in the identification of the tyrosine-475 (Y475) site on EDC3. (FIG. 4B) Representative immunofluorescence images depicting decreased PBs and increased SGs in AHL-030-treated cells under stress conditions. EKT235 is shown as a negative control. See FIGS. 8 and 9 for additional details. (FIG. 4C) Representative MS1 extracted ion chromatograms (EICs) showing EDC3 Y475 (i.e., amino acid 2 of the peptide sequence […]; SEQ ID NO: 1, which corresponds to amino acids 474-500 of the human enhancer of mRNA-decapping protein 3 isoform 1 polypeptide of GENBANK® Accession No. NP_001135915.1) is liganded by AHL-030 but not EKT235 [SILAC ratio or SR>2 for DMSO vehicle (light, red)/SuTEx fragment ligand (heavy, blue) treatment conditions]. Enrichment (HHS-465/DMSO) and 1:1 (HHS-465/HHS-465) controls are shown. SRs are calculated as the integrated area under the curve ratio of light-to-heavy peptide. Data are representative of n=2-3 biologically independent replicates. […] EDC3-expressing HEK293T cells were pretreated with varying concentrations of AHL-030 (0.1-100 μM, 2 hours) followed by lysis and probe labeling of soluble proteomes with HHS-465 (100 μM, 1 h, RT). The in situ IC50 for EDC3 probe labeling inhibition by AHL-030 was estimated to be ~6 μM. […] Data shown are mean±SEM and representative of n=3 biologically independent replicates. […] Western blots comparing recombinant expression of EDC3 (α-FLAG) and loading controls (α-GAPDH) are shown. Data are representative of n=2 biologically independent replicates.
Among the candidate PB-modulating SuTEx compounds, we focused on AHL-030 because of its PB-inhibitory, SG-enhancing activity in stressed cells and ability to ligand the EDC3 Y475 site (SR >2; FIGS. 4B and 4C). Importantly, we identified a restricted number of reproducibly liganded sites (7 in total) in addition to EDC3 Y475 in chemoproteomic profiling studies of AHL-030 (FIG. 12). We further confirmed AHL-030 as an EDC3 ligand using competitive activity-based protein profiling (ABPP; Grams & Hsu, 2022). Recombinant EDC3-expressing HEK293T cells were treated with a panel of RNP granule modulators including AHL-030 and the negative control compound EKT235 to evaluate structure-activity relationships (SAR, 25 μM compounds, 2 h). Cells were lysed and soluble proteomes labeled with HHS-465 (100 μM, 1 h, RT) followed by CuAAC with rhodamine-azide, SDS-PAGE and in-gel fluorescence scanning. […] Using the in vitro IC50, we calculated the lipophilic efficiency (LipE) of AHL-030 to be ~7, which falls in the range of acceptable lipophilicity in relation to potency (Leeson & Springthorpe, 2007).

O=S(=O)(c1ccc(C(F)(F)F)cc1)n1cc(-c2ccc(F)cc2F)nn1 [EKT166, 4-(2,4-Difluorophenyl)-1-((4-(trifluo•·omethyl)phenyl)sulfonyl)-1H-1,2,3-triazole]
effect on SGs (in words) ([1]; 25 μM): enriched activity; also recorded: inhibited SGs
inhibition at 25 µM ([1]; Homo sapiens, read-out: reduction/inhibition of SGs/cell): > 70%
SILAC ratio (SR), HNRPK Y72 (HNRPK Y72): > 2

O=S(=O)(C1CC1)n1cc(-c2cccc(F)c2)nn1 [EKT179, 1-(Cyclopropylsulfonyl)-4-(3-fluorophenyl)-1H-1,2,3-triazole]
SILAC ratio (SR), HSPB1 K123 (HSPB1 K123): > 2

O=S(=O)(C1CC1)n1cc(-c2ccc(-c3ccccc3)cc2)nn1 [EKT235, 4-([1,1′-Biphenyl]-4-yl)-1-(cyclopropylsulfonyl)-1H-1,2,3-triazole]
liganding of EDC3 Y475 (in words) (EDC3 Y475): not
inhibition of HHS-465 probe labeling of recombinant EDC3 (in words) (recombinant EDC3): largely inactive
